# According to patent US9796719B2, “Compounds and pharmaceutical compositions thereof for the treatment of inflammatory disorders” (GALAPAGOS NV, priority 2013, dated 2017):
# Molecular target: hENPP2 (UniProtKB/SwissProt Sequence ref Q13822) (Homo sapiens (Human), UniProt Q13822)
# Assay: LPC hENPP2 assay (choline release, LPC as substrate)
# Type: biochemical
# Experimental: The principle of the assay consists in quantifying the released choline with an enzymatic method using choline oxidase and peroxidase. Choline oxydation by choline oxydase releases betaine and peroxide. The latter is quantified in presence of HRP that converts the peroxide detection agent TOOS and 4-aminoantipyrine into quinoneimine dye. The appearance of quinoneimine dye is measured spectrophotometrically at 555 nm and is proportional to the amount of choline released by ENPP2. Inhibition of ENPP2 will result in a decrease of the signal.
# The reaction is terminated and choline quantified by the addition of a 25 μL of a mixture containing 0.6 U/mL of choline oxidase, 0.6 U/mL of peroxydase, 1.8 mM TOOS, 1.2 mM amino-antipyrine, 20 mM EGTA (stop-developer solution) diluted in the buffer described above. […] is read on the Envision after an incubation of 30 min at room temperature (Excitation 555 nm, excitation light=70%).
row,SMILES,IC50 [nM]
1,"CCc1nc2ccc(N3CCN(CC(=O)N(C)C)CC3)nn2c1N(C)c1nc(-c2ccc(F)cc2C)cs1 [Cpd 73, 2-(4-(2-ethyl-3-((4-(4-fluoro-2-methylphenyl)thiazol-2-yl)(methyl)amino)imidazo[1,2-b]pyridazin-6-yl)piperazin-1-yl)-N,N-dimethylacetamide]",100 to 500
2,"CCc1nc2cnc(N3CCNCC3)cn2c1N(C)c1nc(-c2ccc(F)cc2C#N)cs1 [Cpd 15, 2-(2-((2-ethyl-6-(piperazin-1-yl)imidazo[1,2-a]pyrazin-3-yl)(methyl)amino)thiazol-4-yl)-5-fluorobenzonitrile]",> 1000
3,"CCc1nc2ccc(N3CCC(CNS(C)(=O)=O)CC3)nn2c1N(C)c1nc(-c2ccc(F)cc2)cs1 [Cpd 105, N-((1-(2-ethyl-3-((4-(4-fluorophenyl)thiazol-2-yl)(methyl)amino)imidazo[1,2-b]pyridazin-6-yl)piperidin-4-yl)methyl) methanesulfonamide]",> 1000
4,"CCc1nc2ccc(N3CCN(C4CCN(Cc5ccc(OC)cc5)C4=O)CC3)nn2c1N(C)c1nc(-c2ccc(F)cc2)cs1 (stereo not drawn) [Cpd 70, 3-(4-(2-ethyl-3-((4-(4-fluorophenyl)thiazol-2-yl)(methyl)amino)imidazo[1,2-b]pyridazin-6-yl)piperazin-1-yl)-1-(4-methoxybenzyl) pyrrolidin-2-one]",500 to 1000
5,"CCc1nc2ccc(N3CCC4(CCNC4)C3)nn2c1N(C)c1nc(-c2ccc(F)cc2)c(C#N)s1 (stereo not drawn) [Cpd 166, 2-((2-ethyl-6-(2,7-diazaspiro[4.4]nonan-2-yl)imidazo[1,2-b]pyridazin-3-yl)(methyl)amino)-4-(4-fluorophenyl) thiazole-5-carbonitrile]",100 to 500
6,"CCc1nc2ccc(C3CCN(CC(=O)NC)CC3)nn2c1N(C)c1nc(-c2ccc(F)cc2C#N)c(C)s1 [Cpd 211, 2-(4-(3-((4-(2-cyano-4-fluorophenyl)-5-methylthiazol-2-yl)(methyl)amino)-2-ethylimidazo[1,2-b]pyridazin-6-yl)piperidin-l-yl)-N-methylacetamide]",> 1000
7,"CCc1nc2ccc(N3CC(NCC(=O)N(C)C)C3)nn2c1N(C)c1nc(-c2ccc(F)cc2)cs1 [Cpd 156, 2-(1-(2-ethyl-3-((4-(4-fluorophenyl)thiazol-2-yl)(methyl)amino)imidazo[1,2-b]pyridazin-6-yl)azetidin-3-ylamino)-N,N-dimethylacetamide]",500 to 1000
8,"CCc1nc2ccc(N3CC(NS(C)(=O)=O)C3)nn2c1N(C)c1nc(-c2ccc(F)cc2)c(C#N)s1 [Cpd 190, N-(1-(3-((5-cyano-4-(4-fluorophenyl)thiazol-2-yl)(methyl)amino)-2-ethylimidazo[1,2-b]pyridazin-6-yl)azetidin-3-yl)methane-sulfonamide]",0.01 to 100
9,"CCc1nc2ccc(N3CCC4(CN(C)C(=O)O4)C3)nn2c1N(C)c1nc(-c2ccc(F)cc2)c(C#N)s1 (stereo not drawn) [Cpd 164, 2-((2-ethyl-6-(3-methyl-2-oxo-1-oxa-3,7-diazaspiro[4.4]nonan-7-yl)imidazo[1,2-b]pyridazin-3-yl)(methyl)amino)-4-(4-fluorophenyl) thiazole-5-carbonitrile]",100 to 500
10,"CCc1nc2cnc(N3CCN(CC(=O)N4CC(O)C4)CC3)cn2c1N(C)c1cccc(-c2ccc(F)cc2C#N)n1 [Cpd 17, 2-(6-((2-ethyl-6-(4-(2-(3-hydroxyazetidin-1-yl)-2-oxoethyl)piperazin-1-yl)imidazo[1,2-a]pyrazin-3-yl)(methyl)amino)pyridin-2-yl)-5-fluorobenzonitrile]",> 1000
11,"CCc1nc2ccc(N3CCN(CCNC(=O)OC(C)(C)C)CC3)nn2c1N(C)c1nc(-c2ccc(F)cc2)cs1 [Cpd 56, tert-butyl 2-(4-(2-ethyl-3-((4-(4-fluorophenyl)thiazol-2-yl)(methyl)amino)imidazo[1,2-b]pyridazin-6-yl)piperazin-1-yl)ethylcarbamate]",> 1000
12,"CCc1nc2ccc(N3C[C@H]4C[C@H]3CN4C(=O)OC(C)(C)C)nn2c1N(C)c1nc(-c2ccc(F)cc2)cs1 [Cpd 74, tert-butyl-(1R,4S)-5-(2-ethyl-3-((4-(4-fluorophenyl)thiazol-2-yl)(methyl)amino)imidazo[1,2-b]pyridazin-6-yl)-2,5-diazabicyclo[2.2.1] heptane-2-carboxylate]",> 1000
13,"CCc1nc2ccc(N3CC(NCC(=O)NC)C3)nn2c1N(C)c1nc(-c2ccc(F)cc2)cs1 [Cpd 157, 2-(1-(2-ethyl-3-((4-(4-fluorophenyl)thiazol-2-yl)(methyl)amino)imidazo[1,2-b]pyridazin-6-yl)azetidin-3-ylamino)-N-methylacetamide]",500 to 1000
14,"CCc1nc2ccc(N3CC(CO)C3)nn2c1N(C)c1nc(-c2ccc(F)cc2)cs1 [Cpd 153, (1-(2-ethyl-3-((4-(4-fluorophenyl)thiazol-2-yl)(methyl)amino)imidazo[1,2-b]pyridazin-6-yl)azetidin-3-yl)methanol]",> 1000

# The next lines start with the values.
row,IC50 [nM],SMILES
1,500 to 1000,"CCc1nc2ccc(N3CCC(N4CCOCC4)C3)nn2c1N(C)c1nc(-c2ccc(F)cc2)c(CO)s1 (stereo not drawn) [Cpd 148, (2-((2-ethyl-6-(3-morpholino-pyrrolidin-1-yl)imidazo[1,2-b]pyridazin-3-yl)(methyl)amino)-4-(4-fluorophenyl)thiazol-5-yl) methanol]"
2,100 to 500,"CCc1nc2ccc(N3CC(C(=O)N4CCC(O)C4)C3)nn2c1N(C)c1nc(-c2ccc(F)cc2)c(C#N)s1 (stereo not drawn) [Cpd 192, 2-((2-ethyl-6-(3-(3-hydroxy-pyrrolidine-1-carbonyl)azetidin-1-yl)imidazo[1,2-b]pyridazin-3-yl)(methyl)amino)-4-(4-fluorophenyl) thiazole-5-carbonitrile]"
3,0.01 to 100,"CCc1nc2ccc(N3CC[C@@H](NCC(=O)N(C)C)C3)nn2c1N(C)c1nc(-c2ccc(F)cc2)c(C#N)s1 [Cpd 177, (R)-2-(1(3-((5-cyano-4-(4-fluorophenyl)thiazol-2-yl)(methyl)amino)-2-ethylimidazo[1,2-b]pyridazin-6-yl)pyrrolidin-3-ylamino)-N,N-dimethylacetamide]"
4,> 1000,"CCc1nc2ccc(N3CCC(O)CC3)nn2c1N(C)c1nc(-c2ccc(F)cc2)cs1 [Cpd 90, 1-(2-ethyl-3-((4-(4-fluorophenyl)thiazol-2-yl)(methyl)amino)imidazo[1,2-b]pyridazin-6-yl)piperidin-4-ol]"
5,> 1000,"CCc1nc2ccc(N3CCN(CCCO)CC3)nn2c1N(C)c1nc(-c2ccc(F)cc2)c(CO)s1 [Cpd 50, 3-(4-(2-ethyl-3-((4-(4-fluorophenyl)-5-(hydroxymethyl)thiazol-2-yl)(methyl)amino)imidazo[1,2-b]pyridazin-6-yl)piperazin-1-yl)propan-1-ol]"
6,> 1000,"CCc1nc2ccc(N3CCC(CN)CC3)nn2c1N(C)c1nc(-c2ccc(F)cc2)cs1 [Cpd 104, N-(6-(4-(aminomethyl)piperidin-1-yl)-2-ethylimidazo[1,2-b]pyridazin-3-yl)-4-(4-fluorophenyl)-N-methylthiazol-2-amine]"
7,0.01 to 100,"CCc1nc2ccc(N3CCN(CC4CNC(=O)O4)CC3)nn2c1N(C)c1nc(-c2ccc(F)cc2)c(C#N)s1 (stereo not drawn) [Cpd 160, 2-((2-ethyl-6-(4-((2-oxooxazolidin-5-yl)methyl)piperazin-1-yl)imidazo[1,2-b]pyridazin-3-yl)(methyl)amino)-4-(4-fluorophenyl) thiazole-5-carbonitrile]"
